Experiments:
Assay in all cases: relative viability (nuclei count vs DMSO), 5 days (fraction); higher = more cells survive
Doramapimod + Phenformin = compound: Cc1ccc(-n2nc(C(C)(C)C)cc2NC(=O)Nc2ccc(OCCN3CCOCC3)c3ccccc23)cc1 [Doramapimod] + N=C(N)NC(=N)NCCc1ccccc1 [Phenformin] (partner 250 µM)
Method in brief: (§1)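 Five library-drug doses in √10 steps were combined with a fixed anchor-drug dose, or a single drug was given alone, by pin tool to lung cancer cell lines in 1536-well plates the day after seeding. Nuclei were stained and counted after 5 days. Relative viability is the nuclei count in treated wells over that in vehicle wells, taken as the median of duplicate plates.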

IPA-3 + Tozasertib = compound: C1=CC=C2C(=C1)C=CC(=C2SSC3=C(C=CC4=CC=CC=C43)O)O [IPA-3] + Cc1cc(Nc2cc(N3CCN(C)CC3)nc(Sc3ccc(NC(=O)C4CC4)cc3)n2)n[nH]1 [Tozasertib] (partner 0.1 µM)
Method in brief: as §1

Doramapimod + Decitabine = compound: Cc1ccc(-n2nc(C(C)(C)C)cc2NC(=O)Nc2ccc(OCCN3CCOCC3)c3ccccc23)cc1 [Doramapimod] + Nc1ncn([C@H]2C[C@H](O)[C@@H](CO)O2)c(=O)n1 [Decitabine] (partner 2 µM)
Method in brief: as §1

IPA-3 + Bortezomib = compound: C1=CC=C2C(=C1)C=CC(=C2SSC3=C(C=CC4=CC=CC=C43)O)O [IPA-3] + CC(C)C[C@H](NC(=O)[C@H](Cc1ccccc1)NC(=O)c1cnccn1)B(O)O [Bortezomib] (partner 0.002 µM)
Method in brief: as §1

Row | Cell Line | relative viability (Doramapimod + Phenformin; first compound 0.02 µM) | relative viability (Doramapimod + Phenformin; first compound 0.06325 µM) | relative viability (Doramapimod + Phenformin; first compound 0.2 µM) | relative viability (Doramapimod + Phenformin; first compound 0.6325 µM) | relative viability (Doramapimod + Phenformin; first compound 2 µM) | relative viability (IPA-3 + Tozasertib; first compound 0.2 µM) | relative viability (IPA-3 + Tozasertib; first compound 0.6325 µM) | relative viability (IPA-3 + Tozasertib; first compound 2 µM) | relative viability (IPA-3 + Tozasertib; first compound 6.325 µM) | relative viability (IPA-3 + Tozasertib; first compound 20 µM) | relative viability (Doramapimod + Decitabine; first compound 0.02 µM) | relative viability (Doramapimod + Decitabine; first compound 0.06325 µM) | relative viability (Doramapimod + Decitabine; first compound 0.2 µM) | relative viability (Doramapimod + Decitabine; first compound 0.6325 µM) | relative viability (Doramapimod + Decitabine; first compound 2 µM) | relative viability (IPA-3 + Bortezomib; first compound 0.2 µM) | relative viability (IPA-3 + Bortezomib; first compound 0.6325 µM) | relative viability (IPA-3 + Bortezomib; first compound 2 µM) | relative viability (IPA-3 + Bortezomib; first compound 6.325 µM) | relative viability (IPA-3 + Bortezomib; first compound 20 µM)
1 | LCLC-97TM1 | 0.456 | 0.424 | 0.488 | 0.38 | 0.269 | 0.255 | 0.178 | 0.259 | 0.216 | 0.189 | 0.197 | 0.208 | 0.242 | 0.236 | 0.235 | 0.524 | 0.847 | 0.814 | 0.438 | 0.575
2 | LCLC-103H | 0.322 | 0.345 | 0.298 | 0.322 | 0.32 | 0.582 | 0.528 | 0.577 | 0.443 | 0.539 | 0.714 | 0.704 | 0.719 | 0.742 | 0.654 | 1.13 | 1.06 | 1.17 | 1.17 | 1.18
3 | LOU-NH91 | 0.76 | 0.671 | 0.735 | 0.774 | 0.417 | 0.649 | 0.669 | 0.649 | 0.656 | 0.742 | 0.858 | 0.806 | 0.84 | 0.849 | 0.711 | 0.493 | 0.479 | 0.498 | 0.478 | 0.597
4 | LU99A | 0.768 | 0.851 | 0.942 | 0.846 | 0.712 | 0.325 | 0.255 | 0.213 | 0.267 | 0.239 | 0.905 | 0.948 | 0.754 | 0.97 | 0.759 | 1.23 | 1.07 | 1.28 | 1.04 | 1.06
5 | LXF-289 | 0.491 | 0.556 | 0.472 | 0.459 | 0.44 | 0.23 | 0.164 | 0.218 | 0.186 | 0.192 | 0.374 | 0.393 | 0.354 | 0.373 | 0.351 | 1.03 | 0.954 | 1.04 | 1.04 | 1.1
6 | NCI-H23 | 0.786 | 0.781 | 0.788 | 0.828 | 0.656 | 0.506 | 0.367 | 0.432 | 0.38 | 0.354 | 0.359 | 0.288 | 0.358 | 0.329 | 0.265 | 1.39 | 0.964 | 1.08 | 1.06 | 0.797
7 | NCI-H322M | 0.813 | 0.782 | 0.852 | 0.909 | 0.828 | 0.502 | 0.408 | 0.527 | 0.498 | 0.513 | 0.722 | 0.671 | 0.736 | 0.785 | 0.706 | 1.31 | 1.21 | 1.19 | 1.32 | 1.23
8 | NCI-H441 | 0.895 | 0.808 | 0.828 | – | 0.729 | 0.738 | 0.596 | 0.739 | 0.739 | 0.524 | 0.238 | 0.216 | 0.268 | 0.238 | 0.194 | 0.446 | – | 0.285 | 0.734 | 0.589
9 | NCI-H460 | 0.51 | 0.54 | 0.581 | 0.595 | 0.454 | 0.464 | 0.462 | 0.727 | 0.516 | 0.453 | 0.499 | 0.434 | 0.487 | 0.553 | 0.46 | 1.64 | 1 | 1.24 | 1.07 | 1.05
10 | NCI-H520 | 0.632 | 0.62 | 0.533 | 0.492 | 0.346 | 0.459 | 0.444 | 0.468 | 0.434 | 0.447 | 0.408 | 0.46 | 0.536 | 0.552 | 0.424 | 1.13 | 0.769 | 0.536 | 0.684 | 0.487
11 | NCI-H596 | 0.672 | 0.689 | 0.672 | 0.795 | 0.703 | 0.968 | 0.907 | 1.11 | 1.02 | 1.04 | 1 | 0.97 | 1.02 | 0.995 | 1 | 1.33 | 1.12 | 1.18 | 0.914 | 1.17
12 | NCI-H647 | 0.436 | 0.593 | 0.614 | 0.543 | 0.494 | 0.463 | 0.298 | 0.266 | 0.415 | 0.161 | 0.44 | 0.331 | 0.39 | 0.418 | 0.365 | 1.77 | 0.939 | 0.654 | 0.614 | 0.121
13 | NCI-H650 | 0.495 | 0.458 | 0.527 | 0.431 | 0.389 | 0.823 | 0.694 | 0.786 | 0.703 | 0.831 | 0.326 | 0.339 | 0.35 | 0.323 | 0.325 | 0.972 | 0.83 | 0.798 | 0.858 | 1.22
14 | NCI-H661 | 0.297 | 0.272 | 0.274 | 0.289 | 0.308 | 0.328 | 0.356 | 0.358 | 0.338 | 0.347 | 0.563 | 0.564 | 0.63 | 0.631 | 0.492 | 0.972 | 0.779 | 0.915 | 0.967 | 0.897
15 | NCI-H727 | 0.652 | 0.498 | 0.445 | 0.544 | 0.576 | 0.659 | 0.615 | 0.828 | 0.529 | 0.568 | 0.855 | 0.852 | 0.999 | 0.736 | 0.767 | 0.841 | 0.788 | 0.857 | 0.866 | 1.12
16 | NCI-H838 | 0.607 | 0.577 | 0.654 | 0.665 | 0.595 | 0.32 | 0.268 | 0.304 | 0.282 | 0.27 | 0.455 | 0.477 | 0.499 | 0.476 | 0.472 | 1.89 | 0.847 | 0.667 | 1.03 | 0.815
